In ChEMBL document CHEMBL1201862, “PubChem BioAssay data set” (2004):
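Following 48 hours of exposure in 96-well plates, responses at five concentrations were used to interpolate endpoints linearly. GI50 is the concentration that inhibits growth by half.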 The source made the active and inactive calls. Cut-off read from the data, not from the text of the source: active = GI50 up to about 1.1 µM and inactive = higher.

Experiments:
Assay in all cases: NCI anticancer screen, dose series, 48 h
786-0 = test system: 786-0
A498 = test system: A498
A549 = test system: A549
ACHN = test system: ACHN
BT-549 = test system: BT-549
CAKI-1 = test system: CAKI-1
CCRF-CEM = test system: CCRF-CEM
COLO 205 = test system: COLO 205
DU-145 = test system: DU-145
EKVX = test system: EKVX
HCC 2998 = test system: HCC 2998
HCT-116 = test system: HCT-116
HCT-15 = test system: HCT-15
HL-60 = test system: HL-60
HOP-62 = test system: HOP-62
HOP-92 = test system: HOP-92
HT-29 = test system: HT-29
Hs-578T = test system: Hs-578T
IGROV-1 = test system: IGROV-1
K562 = test system: K562
KM12 = test system: KM12
LOX IMVI = test system: LOX IMVI
M14 = test system: M14
MCF7 = test system: MCF7
MDA-MB-231 = test system: MDA-MB-231
MDA-MB-435 = test system: MDA-MB-435
MDA-N = test system: MDA-N
MOLT-4 = test system: MOLT-4
Malme-3M = test system: Malme-3M
NCI-H226 = test system: NCI-H226
NCI-H23 = test system: NCI-H23
NCI-H460 = test system: NCI-H460
NCI-H522 = test system: NCI-H522
NCI/ADR-RES = test system: NCI/ADR-RES
OVCAR-3 = test system: OVCAR-3
OVCAR-4 = test system: OVCAR-4
OVCAR-5 = test system: OVCAR-5
OVCAR-8 = test system: OVCAR-8
PC-3 = test system: PC-3
RPMI-8226 = test system: RPMI-8226
RXF 393 = test system: RXF 393
SF-268 = test system: SF-268
SF-295 = test system: SF-295
SF-539 = test system: SF-539
SK-MEL-28 = test system: SK-MEL-28
SK-MEL-2 = test system: SK-MEL-2
SK-MEL-5 = test system: SK-MEL-5
SK-OV-3 = test system: SK-OV-3
SN12C = test system: SN12C
SNB-19 = test system: SNB-19
SNB-75 = test system: SNB-75
SR = test system: SR
SW-620 = test system: SW-620
T47D = test system: T47D
TK-10 = test system: TK-10
U-251 = test system: U-251
UACC-257 = test system: UACC-257
UACC-62 = test system: UACC-62
UO-31 = test system: UO-31

COc1ccc(OC)c2c1C[C@@H]1C(C#N)N3[C@H](Cc4c(OC)ccc(OC)c4[C@@H]3C)C(=O)N1[C@H]2C (some centres undefined)
GI50 (786-0): 3.01 µM (inactive)
GI50 (A498): 11.2 µM (inactive)
GI50 (A549): 9.53 µM (inactive)
GI50 (ACHN): 2.8 µM (inactive)
GI50 (BT-549): 1.97 µM (inactive)
GI50 (CAKI-1): 4.72 µM (inactive)
GI50 (CCRF-CEM): 1.9 µM (inactive)
GI50 (COLO 205): 1.84 µM (inactive)
GI50 (DU-145): 22.4 µM (inactive)
GI50 (EKVX): 5.77 µM (inactive)
GI50 (HCC 2998): 3.61 µM (inactive)
GI50 (HCT-116): 3.83 µM (inactive)
GI50 (HCT-15): 3.08 µM
GI50 (HL-60): 1.85 µM (inactive)
GI50 (HOP-62): 22.5 µM (inactive)
GI50 (HOP-92): 2.06 µM (inactive)
GI50 (HT-29): 8.05 µM (inactive)
GI50 (Hs-578T): 4.42 µM (inactive)
GI50 (IGROV-1): 4.56 µM (inactive)
GI50 (K562): 2.27 µM (inactive)
GI50 (KM12): 2.77 µM (inactive)
GI50 (LOX IMVI): 2.44 µM (inactive)
GI50 (M14): 2.67 µM (inactive)
GI50 (MCF7): 3.91 µM (inactive)
GI50 (MDA-MB-231): 2.08 µM (inactive)
GI50 (MDA-MB-435): 3.33 µM (inactive)
GI50 (MDA-N): 4.33 µM (inactive)
GI50 (MOLT-4): 2.43 µM (inactive)
GI50 (Malme-3M): 2.87 µM (inactive)
GI50 (NCI-H226): 13.5 µM (inactive)
GI50 (NCI-H23): 4.5 µM (inactive)
GI50 (NCI-H460): 7.85 µM (inactive)
GI50 (NCI-H522): 1.68 µM (inactive)
GI50 (NCI/ADR-RES): 4.12 µM (inactive)
GI50 (OVCAR-3): 2.07 µM (inactive)
GI50 (OVCAR-4): 3.23 µM (inactive)
GI50 (OVCAR-5): 8.09 µM (inactive)
GI50 (OVCAR-8): 2.38 µM (inactive)
GI50 (PC-3): 3.18 µM (inactive)
GI50 (RPMI-8226): 2.53 µM (inactive)
GI50 (RXF 393): 1.83 µM (inactive)
GI50 (SF-268): 2.15 µM (inactive)
GI50 (SF-295): 14.9 µM (inactive)
GI50 (SF-539): 2.5 µM (inactive)
GI50 (SK-MEL-28): 3.03 µM (inactive)
GI50 (SK-MEL-2): 2.16 µM (inactive)
GI50 (SK-MEL-5): 1.75 µM (inactive)
GI50 (SK-OV-3): 11.9 µM (inactive)
GI50 (SN12C): 4.42 µM (inactive)
GI50 (SNB-19): 2.15 µM (inactive)
GI50 (SNB-75): 1.08 µM (active)
GI50 (SR): 2.15 µM (inactive)
GI50 (SW-620): 2.86 µM (inactive)
GI50 (T47D): 3.11 µM (inactive)
GI50 (TK-10): 3.57 µM (inactive)
GI50 (U-251): 2.26 µM (inactive)
GI50 (UACC-257): 2.51 µM (inactive)
GI50 (UACC-62): 2.36 µM (inactive)
GI50 (UO-31): 2.25 µM (inactive)
